Molecular target: T1, MtMetAP1c (Mycobacterium tuberculosis, UniProt P9WK19)
T1 construct: gene map
Experiment: biochemical
Conditions: read-out: IC50 (μM) / MtMetAP1c + 100 μM CoCl2

T1 sequence (P9WK19 whole entry): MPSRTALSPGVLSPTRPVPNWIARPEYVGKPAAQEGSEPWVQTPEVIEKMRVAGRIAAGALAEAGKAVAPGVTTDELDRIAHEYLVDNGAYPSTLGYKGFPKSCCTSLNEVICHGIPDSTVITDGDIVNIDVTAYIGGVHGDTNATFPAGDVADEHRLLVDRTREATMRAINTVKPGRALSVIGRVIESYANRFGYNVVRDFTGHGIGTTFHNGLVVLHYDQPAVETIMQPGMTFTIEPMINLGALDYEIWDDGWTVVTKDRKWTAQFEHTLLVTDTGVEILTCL

Compound: Cc1nc(-c2ccccn2)nc(N(C)Cc2ccccc2)c1Cl [OJT008, N-benzyl-5-chloro-N,6-dimethyl-2-pyridin-2-ylpyrimidin-4-amine]
- IC50: 11.8 ± 1.3 µM

Reference: paper PMC10742973 (International Journal of Molecular Sciences, 2023)
